Data published in patent US20260240817A1, “COMPOSITIONS AND METHODS FOR TREATING CHARCOT-MARIE-TOOTH DISEASE” (priority 2023, published 2026).
Entries after “also recorded” stand apart in the source; their conditions may differ.

Key:
[1] = tested on: MG patients; assay: Phase 1 FIH study, single doses in MG patients; type: in vivo, human
Procedure: (§1) NMD670 has been tested in a Phase 1, FIH, single ascending and multiple ascending dose study in healthy volunteers. […] In addition, the Phase 1 FIH study also tested single doses of 400 mg and 1200 mg in 12 MG patients.

[2] = tested on: mouse model of CMT1A; assay: Stimulated EMG (CMAP decrement) in mouse model of CMT1A; type: in vivo
Procedure: (§2) Male and female mice (Jacson Laboratory Strain #:030052) approx. 6-7 months of age at time of study start were used. These genetically modified mice are used as a disease model to study Charcot Marie Tooth (CMT) disease type 1A (CMT1A).
(§3) The sodium salt of NMD670 was dissolved in phosphate buffered saline (PBS) to a dose volume of 1 mg/mL. The entire amount of dose-solution was then transferred to a vial labelled A or B (for blinding purposes). The vehicle control solution was PBS and this was transferred to a vial labelled A or B (for blinding purposes). Compound was dosed IP at a volume of 10 mL/kg, from a 1 mg/mL dose solution.
(§4) NMD670 or vehicle was administered by IP injection at a volume of 10 mL/kg from a 1 mg/mL dose solution while sedated in the EMG measurement set up. 10 to 15 minutes was allowed to elapse before next step was initiated.
(§5) Each mouse was tested prior to intervention with test article, and then tested after IP injection of 10 mg/kg NMD670 or vehicle (PBS). A washout period was then allowed (48 hours), and the mouse was subjected to the same test, but receiving the opposite treatment to that on the first day. All mice thus received both vehicle and NMD670, in a randomized order (FIG. 6).

[3] = tested on: mouse model of CMT1A; assay: In vivo hind leg force (torque) on sciatic nerve stimulation in mouse model of CMT1A
Procedure: as §2, §3
Animal was sedated (isoflurane inhalation 2% in ambient air) and prepared for assessment of force production from the hind leg, via electrical stimulation of the sciatic nerve in a static position. Stimulation electrodes were inserted at the sciatic nerve, and test pulses of low current amplitude were used to adjust position of all electrodes until a stable reproducible signal was achieved twice. The force resulting from supramaximal electrical stimulation of the supplying motor nerve was recorded from a foot-pad moved by the foot/paw of the animal. See table Table 21 for detailed stimulation protocol.
as §4
The animal remained sedated and prepared for assessment of force production from the hind leg, via electrical stimulation of the sciatic nerve in a static position. Stimulation electrodes were inserted at the sciatic nerve, and test pulses of low current amplitude were used to adjust position of all electrodes until a stable reproducible signal was achieved twice. The force resulting from supramaximal electrical stimulation of the supplying motor nerve was recorded from a foot-pad moved by the foot/paw of the animal. See Table 21 for detailed stimulation protocol.
as §5

[4] = tested on: healthy volunteers; assay: Phase I (FIH) clinical trial, safety and tolerability in healthy volunteers; type: in vivo, human
From the text: Part A1 tested single doses of NMD670 in a double-blind, randomised, placebo-controlled, partial crossover and dose-escalating design in healthy male subjects (see the WHO International Clinicals Trials Registry Platform study reference NL8692). A total of nine dose levels were investigated in three cohorts of subjects. Each cohort consisted of nine subjects, each subject had three study sessions. Each subject received escalating doses of NMD670 on two occasions and placebo on one occasion, the order will be randomized in a cross-over fashion. Each dose level was randomized in a 6:3 ratio (active vs. placebo). See Table 10 for an overview of the randomization scheme.
Due to this temporary halt and partial unblinding of the study during dose level 7, a new randomization was necessary. After unblinding three subjects in dose level 7, the original randomization for dose 8 and 9 was changed in order to keep the study blinded. […] Therefore, for the remaining 2 doses, a full cross-over design investigating one previously tested dose level was used. The 9 subjects in cohort 3 were randomized to receive the study drug in level 8 and placebo in level 9, or vice versa. To determine the effect of food on the exposure of single oral doses of NMD670, dose level 5 was administered in both the fasted and fed condition. Subjects who received dose level 5 returned for a fourth visit in which they received dose level 5 (or matching placebo) in the fed condition, in the same randomization as the chosen dose level in the fasted condition.
Part A2 of the study investigated the safety, tolerability and pharmacokinetics of NMD670 in 8 healthy female subjects of non-childbearing potential, in a randomized, double-blind, placebo-controlled single dose administration of NMD670. Subjects received 800 mg NMD670. Subjects were randomized in a 6:2 ratio (active vs. placebo).
The following endpoints were determined at time points indicated in the Schedule of Assessments. • Serious adverse events (SAEs) and adverse events (AEs) were collected throughout the study at every study visit. • Concomitant medication • Clinical laboratory tests • Haematology • Chemistry • Urinalysis • Coagulation • Vital signs • Pulse Rate (bpm) • Systolic blood pressure (mmHg) • Diastolic blood pressure (mmHg) • Respiratory rate • ECG • Heart Rate (HR) (bpm), PR, QRS, QT, QTcF • 24-hour Holter recording • Hand grip dynamometry • Grip release profile; time profile from 100% maximum voluntary contraction (MVC) to 5% of the 100% MVC
as §1

Compound: C[C@H](Oc1ccc(Br)cc1-c1ccon1)C(=O)O [NMD670, (2S)-2-[4-bromo-2-(1,2-oxazol-3-yl)phenoxy]propanoic acid]
- myotonia ([1]; patients with MG, single doses of 400 mg and 1200 mg): not observed
- symptoms of MG ([1]; single dose of 400 mg): statistically significant and clinically relevant improvements of symptoms
- CMAP decrement, NMD670 vs vehicle group after treatment ([2]; 10 mg/kg IP, n=8): not significantly different
- recovery of CMAP decrement after intervention ([2]; 40 Hz, 10 mg/kg IP (sodium salt in PBS), vehicle 8.6): 15.2 % point
- ability to sustain force during stimulated contraction ([3]; 10 mg/kg IP, compared to Vehicle): markedly improved
- stimulated force ([3]; 10 mg/kg intra peritoneally, compared to vehicle treatment): significantly increase
- Change in Torque (peak stimulated force, before to after treatment) ([3]; 1 Hz, 10 mg/kg IP, vehicle −0.37): 0.95 mN*m
- Change in Torque (peak stimulated force, before to after treatment) ([3]; 15 Hz, 10 mg/kg IP, vehicle −0.46): 0.59 mN*m
- Change in Torque (peak stimulated force, before to after treatment) ([3]; 30 Hz, 10 mg/kg IP, vehicle −0.95): 0.49 mN*m
- increase of peak muscle force ([3]; 60 Hz, 10 mg/kg IP): 1.13 mNm
- Change in Torque (peak stimulated force, before to after treatment) ([3]; 60 Hz, 10 mg/kg IP, vehicle −1.49): 1.13 mN*m
- Change in Fade (before to after treatment) ([3]; 60 Hz, 10 mg/kg IP, vehicle −1.5): 2.2%
- increase of peak muscle force ([3]; 120 Hz, 10 mg/kg IP): 1.67 mNm
- Change in Torque (peak stimulated force, before to after treatment) ([3]; 120 Hz, 10 mg/kg IP, vehicle −1.36): 1.67 mN*m
- Change in Fade (before to after treatment) ([3]; 120 Hz, 10 mg/kg IP, vehicle −14.1): 8.1%
- improvement of ability to sustain force ([3]; 200 Hz, 10 mg/kg IP): 18.3 % point
- Change in Torque (peak stimulated force, before to after treatment) ([3]; 200 Hz, 10 mg/kg IP, vehicle −1.42): 1.90 mN*m
- Change in Fade (before to after treatment) ([3]; 200 Hz, 10 mg/kg IP, vehicle −24.1): 18.3%
- tolerability of maximum repeated dose ([4]; 400 mg BID, healthy volunteers): well tolerated
- healthy subjects with myotonic symptoms ([4]; 1200 mg once a day, mild in intensity, resolved spontaneously within a few hours): 2
- adverse event of myotonia, intensity ([4]; 1600 mg single dose, one healthy subject, spontaneously and fully resolved within hours): moderate in intensity; also recorded: moderate severity
- serious or severe adverse effects ([4]; Phase 1, healthy subjects, single doses 50 to 1600 mg): No serious or severe adverse effects; also recorded: No serious adverse reactions
- overall safety and tolerability ([4]; Phase 1 FIH study, TEAE incidence similar between NMD670 and placebo): safe and well tolerated
- subject discontinuations ([4]; Phase 1 Part A): no subject discontinuations
- total AEs reported ([4]; Phase 1 Part A, 35 subjects): 70
- AEs at least possibly drug related ([4]; Phase 1 Part A, of 70 AEs, number (%)): 47 (67%)
- serum uric acid ([4]; Phase 1 clinical study, not considered clinically significant): dose-dependent decrease
- transient myotonia, relation to dose ([4]; single doses, 1200 mg and 1600 mg): reported at the highest dose levels tested
